Key:
[1] = target: human D3 receptors expressed in stably transfected HEK 293 cells (Homo sapiens, UniProt P35462); experiment: forskolin-dependent whole cell adenylyl cyclase inhibition assay, D3; assay type: cell-based; conditions: HEK293, read-out: Intrinsic activity hD3 HEK
[2] = target: human D2 receptors expressed in stably transfected HEK 293 cells (Homo sapiens, UniProt P14416); experiment: forskolin-dependent whole cell adenylyl cyclase inhibition assay, D2; assay type: cell-based; conditions: HEK293, read-out: Intrinsic activity hD2 HEK
human D2 receptors expressed in stably transfected HEK 293 cells, sequence (P14416 whole entry): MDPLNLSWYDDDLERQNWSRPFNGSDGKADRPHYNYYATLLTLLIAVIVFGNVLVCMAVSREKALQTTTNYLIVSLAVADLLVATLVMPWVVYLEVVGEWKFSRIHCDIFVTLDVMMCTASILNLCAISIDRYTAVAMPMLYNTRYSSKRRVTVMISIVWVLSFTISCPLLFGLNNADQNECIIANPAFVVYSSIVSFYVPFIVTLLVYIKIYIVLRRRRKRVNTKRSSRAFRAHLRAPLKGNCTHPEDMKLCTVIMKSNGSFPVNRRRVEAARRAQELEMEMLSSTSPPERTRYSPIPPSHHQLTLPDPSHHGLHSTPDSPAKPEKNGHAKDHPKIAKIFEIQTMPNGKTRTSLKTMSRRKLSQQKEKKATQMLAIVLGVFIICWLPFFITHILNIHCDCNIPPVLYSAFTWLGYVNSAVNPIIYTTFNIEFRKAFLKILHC

human D3 receptors expressed in stably transfected HEK 293 cells, sequence (P35462 whole entry): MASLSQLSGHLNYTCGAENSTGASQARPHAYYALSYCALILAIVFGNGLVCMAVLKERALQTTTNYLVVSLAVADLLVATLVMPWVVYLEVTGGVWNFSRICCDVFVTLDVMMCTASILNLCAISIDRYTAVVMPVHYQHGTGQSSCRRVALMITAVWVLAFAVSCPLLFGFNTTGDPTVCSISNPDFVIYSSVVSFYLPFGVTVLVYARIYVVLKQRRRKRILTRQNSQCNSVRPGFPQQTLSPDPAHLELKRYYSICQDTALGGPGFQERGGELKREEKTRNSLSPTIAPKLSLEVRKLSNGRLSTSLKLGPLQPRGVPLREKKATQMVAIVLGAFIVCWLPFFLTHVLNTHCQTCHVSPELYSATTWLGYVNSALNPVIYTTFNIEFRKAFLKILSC

Emax [1]	Emax [2]	Structure (SMILES)
18.7 ± 2.2%	33.5 ± 3.1%	COc1ccccc1N1CCN(CCCCNC(=O)c2ccc(N(C)C)cc2)CC1 [WC 10, 4-(Dimethylamino)-N-[4-(4-(2-methoxyphenyl)piperazin-1-yl)butyl]benzamide]
–	35.3 ± 1%	COc1ccccc1N1CCN(CCCCNC(=O)c2ccc(CCF)cc2)CC1 [WC 44]
